Laboratory results taken from patent US7129257B1, “Pyrazolo[3,4- e]benzoxazoles for the treatment of glaucoma” (Alcon, Inc., priority 2003, dated 2006).

Experiments:
5-HT2A receptor [1] = target: T1, 5-HT2A receptor (Rattus norvegicus, UniProt P14842); assay: 5-HT2 Receptor Binding Assay ([125I]DOI competition); conditions: [125I]DOI binding, post mortem rat or human cerebral cortex homogenates
Description: The procedures described herein in Method 1 can be used to confirm a compound's 5-HT2 binding affinity.
5-HT2 Receptor Binding Assay
Aliquots of post mortem rat or human cerebral cortex homogenates (400 μL) dispersed in 50 mM TrisHCl buffer (pH 7.4) are incubated with [^125I]DOI (80 pM final) in the absence or presence of methiothepin (10 μM final) to define total and non-specific binding, respectively, in a total volume of 0.5 mL. The assay mixture is incubated for 1 hour at 23° C. in polypropylene tubes and the assays terminated by rapid vacuum filtration over Whatman GF/B glass fiber filters previously soaked in 0.3% polyethyleneimine using ice-cold buffer. Test compounds (at different concentrations) are substituted for methiothepin. Filter-bound radioactivity is determined by scintillation spectrometry on a beta counter. The data are analyzed using a non-linear, iterative curve-fitting computer program [Trends Pharmacol. Sci., 16, 413 (1995)] to determine the compound affinity parameter. The concentration of the compound needed to inhibit the [^125I]DOI binding by 50% of the maximum is termed the IC50 or Ki value.

5-HT2A receptor [2] = target: T1, 5-HT2A receptor; assay: 5-HT2 Functional Assay: [Ca2+]i Mobilization (FLIPR); format: cell-based; design: endogenous in cells; host or cells: A7r5 rat vascular smooth muscle cells; conditions: for EC50: [Ca2+]i mobilization, rat vascular smooth muscle cells A7r5; for Emax: percentage of maximum 5-HT-induced response, A7r5 cells
Description: 5-HT2 Functional Assay: [Ca^2+]i; Mobilization
The receptor-mediated mobilization on intracellular calcium ([Ca^2+]i) was studied using the Fluorescence Imaging Plate Reader (FLIPR) instrument. Rat vascular smooth muscle cells, A7r5, were grown in a normal media of DMEM/10% FBS and 10 μg/mL gentamycin. Confluent cell monolayers were trypsinized, pelleted, and re-suspended in normal media. Cells were seeded in a 50 μL volume at a density of 20,000 cells/well in a black wall, 96-well tissue culture plate and grown for 2 days.
On the day of the experiment, one vial of FLIPR Calcium Assay Kit dye was re-suspended in 50 mL of a FLIPR buffer consisting of Hank's Balanced Salt Solution (HBSS), 20 mM HEPES, and 2.5 mM probenecid, pH 7.4. Cells were loaded with the calcium-sensitive dye by addition of an equal volume (50 μL) to each well of the 96-well plate and incubated with dye for 1 h at 23° C.
Typically, test compounds were stored at 25 μM in 50% DMSO/50% Ethanol solvent. Compounds were diluted 1:50 in 20% DMSO/20% Ethanol. For “hit” screening, compounds were further diluted 1:10 in FLIPR buffer and tested at a final concentration of 10 μM. For dose-response experiments, compounds were diluted 1:50 in FLIPR buffer and serially diluted 1:10 to give a 5- or 8-point dose-response curve.
The compound plate and cell plate were placed in the FLIPR instrument. At the beginning of an experimental run, a signal test was performed to check the basal fluorescence signal from the dye-loaded cells and the uniformity of the signal across the plate. The basal fluorescence was adjusted between 8000–12000 counts by modifying the exposure time, the camera F-stop, or the laser power. Instrument settings for a typical assay were the following: laser power 0.3–0.6 W, camera F-stop F/2, and exposure time 0.4 sec. An aliquot (25 μL) of the test compound was added to the existing 100 μL dye-loaded cells at a dispensing speed of 50 μL/sec. Fluorescence data were collected in real-time at 1.0 sec intervals for the first 60 secs and at 6.0 sec intervals for an additional 120 secs. Responses were measured as peak fluorescence intensity minus basal and where appropriate were expressed as a percentage of a maximum 5-HT-induced response. When the compounds were tested as antagonists against 10 μM 5-HT, they were incubated with the cells for 15 minutes prior to the addition of 5-HT.

T1 sequence (P14842 whole entry): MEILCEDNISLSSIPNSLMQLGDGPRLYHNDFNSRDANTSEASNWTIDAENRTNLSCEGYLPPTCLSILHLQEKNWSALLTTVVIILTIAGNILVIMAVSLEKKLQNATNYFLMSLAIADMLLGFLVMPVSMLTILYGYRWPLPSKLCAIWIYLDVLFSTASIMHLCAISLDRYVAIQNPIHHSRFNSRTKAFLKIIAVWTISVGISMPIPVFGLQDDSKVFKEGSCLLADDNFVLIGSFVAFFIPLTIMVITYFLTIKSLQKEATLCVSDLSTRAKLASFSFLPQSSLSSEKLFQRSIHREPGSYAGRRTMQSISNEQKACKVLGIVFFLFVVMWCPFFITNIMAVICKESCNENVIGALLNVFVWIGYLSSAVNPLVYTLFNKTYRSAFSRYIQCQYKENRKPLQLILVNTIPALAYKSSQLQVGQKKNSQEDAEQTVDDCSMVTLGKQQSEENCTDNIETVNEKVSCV

SMILES	IC50 (5-HT2A receptor [1]) [nM]	EC50 (5-HT2A receptor [2]) [nM]	Emax (5-HT2A receptor [2]) [%]	melting point [°C]
CNC(=O)c1nc2c(ccc3cnn(C[C@H](C)N)c32)o1 [Example 4, 1-[(S)-2-Aminopropyl]-1H-pyrazolo[3,4-e]benzoxazole-7-carboxylic acid methylamide]	19	907	77	
COc1nc2c(ccc3cnn(C[C@H](C)N)c32)o1 [Example 1, (S)-2-(7-Methoxy-1H-pyrazolo[3,4-e]benzoxazol-1-yl)-1-methylethylamine]	8	352	72	
COCc1nc2c(ccc3cnn(C[C@H](C)N)c32)o1 [Example 2, (S)-2-[7-(Methoxymethyl)-1H-pyrazolo[3,4-e]benzoxazol-1-yl]-1-methylethylamine]	6	174	88	40 to 43
C[C@H](N)Cn1ncc2ccc3oc(C(N)=O)nc3c21 [Example 3, 1-[(S)-2-Aminopropyl]-1H-pyrazolo[3,4-e]benzoxazole-7-carboxylic acid amide]		445	72	60 to 65
